{
  "source": "patent US11827624B2",
  "about": "“Covalent immune recruiter compounds for immune cell recognition and associated uses” (McMaster University, priority 2020, dated 2023)",
  "key": {"[1]": {"test": "Aqueous CIR stability test (LC-MS hydrolytic stability in PBS)", "assay_type": "physicochemical", "conditions": "PBS with 1% DMSO; ≈10 μM in 1% DMSO/PBS, room temperature; read-out: t1/2 (hydrolytic stability, intact CIR) (converted)", "method": "Stability studies were conducted on a Sciex 4000 QTRAP, ESI-LCMS Triple Quadrupole Mass Spectrometer connected to an Agilent 1200 HPLC. All molecules were diluted 100× in PBS from a stable frozen DMSO stock solution reaching a final concentration of ≈10 μM in 1% DMSO/PBS and incubated for different amounts of time at room temperature, prior to LC-MS injection using a gradient of 95:5 to 5:95 (0.1% Formic Acid (aq)) water: ACN over 15 minutes. The integrations of the Absorbance values at 355-365 nm, were determined corresponding to the DNP moiety. The absorbance values corresponding to intact CIR were divided by the sum of intact and hydrolyzed CIR (the imidazole-DNP fragment) to determine fraction CIR intact changing with time. The fraction of intact CIR versus time was plotted on GraphPad Prism 8 using a “Dissociation—One Phase Decay” to extract the half life.\nLC-MS analysis of the hydrolytic stability of CIRs 1, 3, and 4 in PBS was performed. The curve fit was done using a monoexponential decay which represents intact CIR plotted as a function of peak integration (corresponding to DNP absorbance) overtime."}, "PSMA coated beads": {"test_system": "PSMA coated beads", "test": "Flow cytometry ADCP assay, PSMA coated beads and U937 monocytes", "assay_type": "cell-based, human", "conditions": "400 nM CIR 3, 200 nM anti-DNP IgG, 10% FBS+RPMI", "method": "24 hours prior to inducing phagocytosis, 6 million U937 monocytes were seeded at 500,000 cells/mL and activated with IFN-γ ([…]). These cells were then counted and washed twice with serum free assay media (neat RPMI). Cells were then suspended to a concentration of 1 million cells/mL and stained with 1.9 μM Vybrant™ DiD Cell-Labelling Solution for 30 minutes (37° C., 5% CO2). Cells were then washed 3× with warm assay media (AM, 10% Ultra Low IgG FBS in RPMI) and resuspended to a concentration of 1.5 million cells/mL for use.\n5.6 million YG strep beads were washed 3× with PBS and resuspended in 150 μL of a saturating concentration of biotinylated-PSMA solution. This was allowed to incubate at 4° C. for 1 hour and then washed 3× with serum free AM. The beads were resuspended with AM to a concentration of 15 million beads/mL for use.\nAll stocks were made in AM. The initial anti-DNP antibody stock solution was made (320 μL of 200 nM). 75 μL of this was removed and 0.4 μL of PMPA solution was added (250 mM in DMSO). […] Beads were detected in the PE-Cy7 channel, monocytes were detected in the APC Cy7 channel, PSMA loading was confirmed with the Alexa 647 channel. […] ADCP was determined by plotting monocyte stain against bead stain, and was quantified as % Target Phagocytosis=(Double Positive Events)/PSMA Bead Target Events+Double Positive Events×100. […]"}},
  "data": [
    {"smiles": "O=C(O)CC[C@H](NC(=O)N[C@@H](CCCCNC(=O)NCCOCCOCCOCCOCCOCCOCCOCCOC(=O)n1cnc(CCNC(=O)CNc2ccc([N+](=O)[O-])cc2[N+](=O)[O-])c1)C(=O)O)C(=O)O", "note": "[CIR 3]", "values": [
      {"measurement": "half-life", "setting": "[1]", "result": "~12", "unit": "h"},
      {"measurement": "ADCP of PSMA coated beads", "setting": "PSMA coated beads", "result": "could selectively affect ADCP of PSMA coated target beads via covalent recruitment of anti-DNP, in a time dependent manner"}
    ]}
  ]
}
